Laboratory results from the supplement of paper PMC10307832.

Assays:
Experiment in all cases: relative viability (nuclei count vs DMSO), 5 days (fraction); higher = more cells survive
[1] = compound: C[C@H]([C@@H](C(=O)N)NC(=O)[C@@H]1CSSC[C@@H](C(=O)N[C@H](C(=O)N[C@@H](C(=O)N[C@H](C(=O)N1)CCCCN)CC2=CNC3=CC=CC=C32)CC4=CC=C(C=C4)O)NC(=O)[C@@H](CC5=CC=CC=C5)N)O [CAP-232] + O=C(c1cc(Cc2n[nH]c(=O)c3ccccc23)ccc1F)N1CCN(C(=O)C2CC2)CC1 [Olaparib] (partner 8 µM)
In short: (§1)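 Values are medians from duplicate plates. Each reflects relative viability, defined as the nuclei count of treated wells over that of vehicle wells. Lung cancer cell lines in 1536-well plates were pin-tool dosed one day after seeding with one drug alone or with a fixed anchor-drug dose plus five library-drug doses (not always all listed) in √10 steps, then fixed, stained and imaged at 4× after 5 days.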

[2] = compound: C[C@H]([C@@H](C(=O)N)NC(=O)[C@@H]1CSSC[C@@H](C(=O)N[C@H](C(=O)N[C@@H](C(=O)N[C@H](C(=O)N1)CCCCN)CC2=CNC3=CC=CC=C32)CC4=CC=C(C=C4)O)NC(=O)[C@@H](CC5=CC=CC=C5)N)O [CAP-232] + CC1(C)CCC(c2ccc(Cl)cc2)=C(CN2CCN(c3ccc(C(=O)NS(=O)(=O)c4ccc(N[C@H](CCN5CCOCC5)CSc5ccccc5)c(S(=O)(=O)C(F)(F)F)c4)cc3)CC2)C1 [Navitoclax] (partner 0.5 µM)
In short: as §1

[3] = compound: C[C@H]([C@@H](C(=O)N)NC(=O)[C@@H]1CSSC[C@@H](C(=O)N[C@H](C(=O)N[C@@H](C(=O)N[C@H](C(=O)N1)CCCCN)CC2=CNC3=CC=CC=C32)CC4=CC=C(C=C4)O)NC(=O)[C@@H](CC5=CC=CC=C5)N)O [CAP-232] + Cc1nc(NC(=O)N2CCC[C@H]2C(N)=O)sc1-c1ccnc(C(C)(C)C(F)(F)F)c1 [Alpelisib] (partner 2 µM)
In short: as §1

[4] = compound: C[C@H]([C@@H](C(=O)N)NC(=O)[C@@H]1CSSC[C@@H](C(=O)N[C@H](C(=O)N[C@@H](C(=O)N[C@H](C(=O)N1)CCCCN)CC2=CNC3=CC=CC=C32)CC4=CC=C(C=C4)O)NC(=O)[C@@H](CC5=CC=CC=C5)N)O [CAP-232] + CC(C)C[C@H](NC(=O)[C@H](Cc1ccccc1)NC(=O)c1cnccn1)B(O)O [Bortezomib] (partner 0.002 µM)
In short: as §1

[5] = compound: C[C@H]([C@@H](C(=O)N)NC(=O)[C@@H]1CSSC[C@@H](C(=O)N[C@H](C(=O)N[C@@H](C(=O)N[C@H](C(=O)N1)CCCCN)CC2=CNC3=CC=CC=C32)CC4=CC=C(C=C4)O)NC(=O)[C@@H](CC5=CC=CC=C5)N)O [CAP-232] + CS(=O)(=O)CCNCc1ccc(-c2ccc3ncnc(Nc4ccc(OCc5cccc(F)c5)c(Cl)c4)c3c2)o1 [Lapatinib] (partner 2 µM)
In short: as §1

[6] = compound: C[C@H]([C@@H](C(=O)N)NC(=O)[C@@H]1CSSC[C@@H](C(=O)N[C@H](C(=O)N[C@@H](C(=O)N[C@H](C(=O)N1)CCCCN)CC2=CNC3=CC=CC=C32)CC4=CC=C(C=C4)O)NC(=O)[C@@H](CC5=CC=CC=C5)N)O [CAP-232] + CS(=O)(=O)N1CCN(Cc2cc3nc(-c4cccc5[nH]ncc45)nc(N4CCOCC4)c3s2)CC1 [Pictilisib] (partner 1 µM)
In short: as §1

[7] = compound: C[C@H]([C@@H](C(=O)N)NC(=O)[C@@H]1CSSC[C@@H](C(=O)N[C@H](C(=O)N[C@@H](C(=O)N[C@H](C(=O)N1)CCCCN)CC2=CNC3=CC=CC=C32)CC4=CC=C(C=C4)O)NC(=O)[C@@H](CC5=CC=CC=C5)N)O [CAP-232] + C[C@]1(O)C[C@@H](c2nc(-c3ccc4ccc(-c5ccccc5)nc4c3)c3c(N)nccn32)C1 [Linsitinib] (partner 1 µM)
In short: as §1

[8] = compound: C[C@H]([C@@H](C(=O)N)NC(=O)[C@@H]1CSSC[C@@H](C(=O)N[C@H](C(=O)N[C@@H](C(=O)N[C@H](C(=O)N1)CCCCN)CC2=CNC3=CC=CC=C32)CC4=CC=C(C=C4)O)NC(=O)[C@@H](CC5=CC=CC=C5)N)O [CAP-232] + C[C@@H](Oc1cc(-c2cnn(C3CCNCC3)c2)cnc1N)c1c(Cl)ccc(F)c1Cl [Crizotinib] (partner 1 µM)
In short: as §1

[9] = compound: C[C@H]([C@@H](C(=O)N)NC(=O)[C@@H]1CSSC[C@@H](C(=O)N[C@H](C(=O)N[C@@H](C(=O)N[C@H](C(=O)N1)CCCCN)CC2=CNC3=CC=CC=C32)CC4=CC=C(C=C4)O)NC(=O)[C@@H](CC5=CC=CC=C5)N)O [CAP-232] + COc1cc2c(Oc3ccc(NC(=O)C4(C(=O)Nc5ccc(F)cc5)CC4)cc3F)ccnc2cc1OCCCN1CCOCC1 [Foretinib] (partner 0.25 µM)
In short: as §1

[10] = compound: C[C@H]([C@@H](C(=O)N)NC(=O)[C@@H]1CSSC[C@@H](C(=O)N[C@H](C(=O)N[C@@H](C(=O)N[C@H](C(=O)N1)CCCCN)CC2=CNC3=CC=CC=C32)CC4=CC=C(C=C4)O)NC(=O)[C@@H](CC5=CC=CC=C5)N)O [CAP-232]
In short: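 Viability was defined as treated-well nuclei divided by vehicle-well nuclei, with the median taken over replicate plates. Cells from lung cancer lines sat overnight at 37 °C in 1536-well plates, received five √10-spaced library-drug doses by pinning on vehicle-anchored plates, and grew 5 days without medium change before one-step fixation, permeabilisation and Hoechst staining, 4× imaging and MetaXpress nuclear counts. Only plates with control CV under 25% and at least one doubling were kept.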

Row | Cell Line | relative viability ([1]; first compound 0.4 µM) | relative viability ([1]; first compound 1.265 µM) | relative viability ([1]; first compound 4 µM) | relative viability ([1]; first compound 12.65 µM) | relative viability ([2]; first compound 0.4 µM) | relative viability ([2]; first compound 1.265 µM) | relative viability ([2]; first compound 4 µM) | relative viability ([2]; first compound 12.65 µM) | relative viability ([3]; first compound 0.4 µM) | relative viability ([3]; first compound 1.265 µM) | relative viability ([3]; first compound 4 µM) | relative viability ([3]; first compound 12.65 µM) | relative viability ([4]; first compound 0.4 µM) | relative viability ([4]; first compound 1.265 µM) | relative viability ([4]; first compound 4 µM) | relative viability ([4]; first compound 12.65 µM) | relative viability ([5]; first compound 0.4 µM) | relative viability ([5]; first compound 1.265 µM) | relative viability ([5]; first compound 4 µM) | relative viability ([5]; first compound 12.65 µM) | relative viability ([6]; first compound 0.4 µM) | relative viability ([6]; first compound 1.265 µM) | relative viability ([6]; first compound 4 µM) | relative viability ([6]; first compound 12.65 µM) | relative viability ([7]; first compound 0.4 µM) | relative viability ([7]; first compound 1.265 µM) | relative viability ([7]; first compound 4 µM) | relative viability ([7]; first compound 12.65 µM) | relative viability ([8]; first compound 0.4 µM) | relative viability ([8]; first compound 1.265 µM) | relative viability ([8]; first compound 4 µM) | relative viability ([8]; first compound 12.65 µM) | relative viability ([9]; first compound 0.4 µM) | relative viability ([9]; first compound 1.265 µM) | relative viability ([9]; first compound 4 µM) | relative viability ([9]; first compound 12.65 µM) | relative viability ([10]; 0.4 µM) | relative viability ([10]; 1.265 µM) | relative viability ([10]; 4 µM) | relative viability ([10]; 12.65 µM)
1 | EBC-1 | 0.773 | 0.686 | 0.698 | 0.662 | 0.315 | 0.328 | 0.363 | 0.304 | 0.876 | 0.819 | 0.846 | 0.76 | 0.512 | 0.497 | 0.567 | 0.475 | 0.181 | 0.228 | 0.194 | 0.159 | 0.363 | 0.314 | 0.391 | 0.286 | 1.04 | 0.944 | 0.904 | 0.926 | 0.194 | 0.169 | 0.178 | 0.11 | 0.0884 | 0.129 | 0.101 | 0.0802 | 1.05 | 0.974 | 1.13 | 0.927
2 | Calu-6 | 0.616 | 0.542 | 0.623 | 0.394 | 0.963 | 0.941 | 0.831 | 0.446 | 1.09 | 1.08 | 1 | 0.654 | 1.16 | 1.04 | 0.947 | 0.653 | 1.26 | 1.03 | 1.15 | 0.664 | 0.956 | 0.889 | 0.945 | 0.585 | 1.05 | 1.01 | 0.929 | 0.988 | 0.961 | 0.842 | 0.988 | 0.555 | 0.867 | 1.02 | 0.995 | 0.561 | 1.12 | 1.02 | 1.15 | 0.74
